# Data reported in patent publication US4743614A, “Amino acid derivatives and processes for preparation thereof” (Fujisawa Pharmaceutical Co., Ltd., priority 1985, dated 1988).
# Key:
# [1] = system: colony forming abilities of bone marrow cells (CFU-c); test: Restorative effect on suppressed colony forming abilities of bone marrow cells in immunodeficient hosts (mitomycin C-treated mice); assay type: in vivo, BDF1 mice; conditions: mitomycin C 1 mg/kg for 2 days, day 9, n = 7-9, **P < 0.01
# Experimental: Restorative effect on suppressed colony forming abilities of bone marrow cells in immunodeficient hosts: BDF1 mice (female, 8 weeks aged) were obtained from Shizuoka Agricultural Cooperative Association for Laboratory Animal, Hamamatsu, Japan. The mice were intraperitoneally injected with mitomycin C (1 mg/kg) every day for 2 days and FR-900490 was also administered to mice intraperitoneally every day for 5 days. At 9th day after first administration of mitomycin C, mice were sacrificed and the colony forming abilities of bone marrow cells (CFU-c) were measured. The schedule of the above test is shown below. [drawing 6] Femoral marrow was harvested from mice by flushing the bone cavity with α-Minimum Essential Medium (α-MEM) supplemented with penicillin G (100 units/ml), streptomycin (100 μg/ml) and 5% fetal bovine serum (FBS). The bone marrow cells were pelleted by centrifugation (500×g, 10 minutes) and resuspended in enriched α-MEM. Mononuclear cells were counted in a hemocytometer and the cells were diluted to 1 ×10^5 cells/ml. Then, 1 ml of bone marrow cells, 1 ml of FBS, 2 ml of 2.2% methyl cellulose in α-MEM and 1 ml of L-929 cell conditioned medium were added to a sterilized tube and mixed by use of automatic mixer. One ml of mixture was plated in 35 mm plastic petri dish and incubated for 7 days in a fully humidified atmosphere of 5% CO2 in air. Triplicate plates were prepared for each experiment. Colonies composed of 50 or more cells were scored on an inverted microscope.
# [2] = system: B-16 melanoma; test: Inhibitory activity for tumor metastasis; assay type: in vivo, BDF1 mice; conditions: 14th day after B-16 melanoma injection, n = 10, **P < 0.01
# Experimental: Inhibitory activity for tumor metastasis
# B-16 Melanoma cells were grown in a Roswel park memorial Institute (RPMI)-1640 medium supplemented with penicillin G (100 units/ml), streptomycin (100 μg/ml) and 10% FBS to subsconfiluency, and the monolayers were rinsed with an aqueous solution of trypsin. Hanks' balanced salt (HBS) solution (Ca-Mg-free) containing the antibiotics described above was added to the monolayers and the monolayer was dislodged by gentle pipetting, and the cells were washed with HBS solution containing the antibiotics described above by centrifugation. The cells were resuspended in HBS solution containing the antibiotics described above and kept at cold temperature. BDF1 mice (female, 8 weeks aged) were injected intravenously with 2×10^5 cells of B-16 melanoma in 0.2 ml of HBS solution containing the antibiotics described above. FR-900490 was intraperitoneally administered once a day at one day and two days before and at one day and four days after the injection of B-16 melanoma. At 14th day after injection of B-16 melanoma, the mice were killed, and the lungs were removed, rinsed in distilled water containing heparin and the number of tumor foci was determined by counting the surface colonies under a dissecting microscope.
# The schedule of the above test is shown. [drawing 7]
# [3] = system: direct plaque forming cells (PFC-SRBC); test: Restorative effect on suppressed antibody forming abilities in immunodeficient hosts; assay type: in vivo, BDF1 mice
# Experimental: Restorative Effect on Suppressed Antibody Forming Abilities in Immunodeficient Hosts
# BDF1 mice (female, 8 weeks aged) were injected intraperitoneally with Mitomycin C (1 mg/kg) from four days before immunization with 5×10^8 Sheep Red Blood Cells (SRBC), every day for three days. Test samples also were administered to mice intraperitoneally from four days before immunization, every day for five days. At day 9, mice were sacrificed and the number of direct plaque forming cells per spleen (PFC-SRBC/spleen) was measured by using Cunningham modification method.
# The schedule of the above test is shown. [drawing 8]
# [4] = Solubility; assay type: physicochemical
structure (smiles),measurement,setting,value
"C[C@@H](N[C@@H](Cc1c[nH]cn1)C(=O)O)[C@H](NC(=O)[C@@H](N)CC(N)=O)C(=O)O [FR-900490, (2S,3R)-2-[[(2S)-2-amino-3-carbamoylpropionyl]amino]-3-[[(1S)-1-carboxy-2-(4-imidazolyl)ethyl]amino]butyric acid]",CFU-c (mean ± SE),[1]; 1 mg/kg i.p. every day for 5 days,59.3 ± 2.86
same,CFU-c (mean ± SE),[1]; 10 mg/kg i.p. every day for 5 days,70.4 ± 6.9
same,CFU-c (mean ± SE),[1]; 100 mg/kg i.p. every day for 5 days,57.2 ± 2.51
same,No. of colonies on the lung mean ± SE,[2]; 1 mg/kg i.p.,39.7 ± 6.4
same,No. of colonies on the lung mean ± SE,[2]; 10 mg/kg i.p.,23.4 ± 3.3
same,No. of colonies on the lung mean ± SE,[2]; 100 mg/kg i.p.,77.9 ± 27.4
same,PFC-SRBC/spleen (average number of 5 mice/group),"[3]; 3 mg/kg i.p., mitomycin C-treated",14.96 × 10^4 PFC-SRBC/spleen
same,PFC-SRBC/spleen (average number of 5 mice/group),"[3]; 10 mg/kg i.p., mitomycin C-treated",17.49 × 10^4 PFC-SRBC/spleen
same,PFC-SRBC/spleen (average number of 5 mice/group),"[3]; 30 mg/kg i.p., mitomycin C-treated",16.30 × 10^4 PFC-SRBC/spleen
same,PFC-SRBC/spleen (average number of 5 mice/group),"[3]; 100 mg/kg i.p., animals not administered mitomycin C",16.83 × 10^4 PFC-SRBC/spleen
same,PFC-SRBC/spleen (average number of 5 mice/group),"[3]; 100 mg/kg i.p., mitomycin C-treated",21.12 × 10^4 PFC-SRBC/spleen
same,Solubility,[4]; Ethyl acetate,Insoluble
same,Solubility,[4]; Methanol,Sparingly soluble
same,Solubility,[4]; Water,Soluble
same,Solubility,[4]; acetone,Insoluble
same,Solubility,[4]; chloroform,Insoluble
same,Solubility,[4]; ethanol,Sparingly soluble
